Measured values reported in patent US8012975B2, “Antitumoral analogs of ET-743” (Pharma Mar, S.A., priority 2000, dated 2011).

How the values were obtained:
Molt 3 = assay: Cytotoxic activity (M) panel, Acute lymphoblastic Molt 3; settings: Homo sapiens, MOLT-3, read-out: CYTOTOXIC ACTIVITY (M) Molt 3, leukemias & lymphomas, ALL Acute lymphoblastic, line Molt 3
Hut 78 = assay: Cytotoxic activity (M) panel, Lymphoma Cutaneus T cell Hut 78; settings: Homo sapiens, HuT78, read-out: CYTOTOXIC ACTIVITY (M) Hut 78, leukemias & lymphomas, Lymphoma Cutaneus T cell, line Hut 78
MC116 = assay: Cytotoxic activity (M) panel, Lymphoma undifferentiated MC116; settings: Homo sapiens, MC116, read-out: CYTOTOXIC ACTIVITY (M) MC116, leukemias & lymphomas, Lymphoma undifferentiated, line MC116
U-937 = assay: Cytotoxic activity (M) panel, Lymphoma Histiocytic U-937; settings: Homo sapiens, U-937, read-out: CYTOTOXIC ACTIVITY (M) U-937
K562 = assay: cells; settings: Homo sapiens, K562, read-out: CYTOTOXIC ACTIVITY (M) K562
H9 = assay: cells; settings: Homo sapiens, H9, read-out: CYTOTOXIC ACTIVITY (M) H9, leukemias & lymphomas, Lymphoma T-cell, line H9
HL60 = assay: cells; settings: Homo sapiens, HL-60, read-out: CYTOTOXIC ACTIVITY (M) HL60, leukemias & lymphomas, ALL Promyelocytic leukemia, line HL60
RAMOS = assay: cells; settings: Homo sapiens, read-out: CYTOTOXIC ACTIVITY (M) RAMOS, leukemias & lymphomas, Lymphoma Burkitts B celll, line RAMOS
SK-OV-3 = assay: Cytotoxic activity (M) panel, Ovary SK-OV-3; settings: Homo sapiens, SK-OV-3, read-out: CYTOTOXIC ACTIVITY (M) SK-OV-3
Hs746t = assay: Cytotoxic activity (M) panel, Gastric Hs746t; settings: Homo sapiens, read-out: CYTOTOXIC ACTIVITY (M) Hs746t
PANC-1 = assay: Cytotoxic activity (M) panel, Pancreas PANC-1; settings: Homo sapiens, PANC-1, read-out: CYTOTOXIC ACTIVITY (M) PANC-1
Y-79 = assay: Cytotoxic activity (M) panel, Retinoblastoma Y-79; settings: Homo sapiens, Y79, read-out: CYTOTOXIC ACTIVITY (M) Y-79
OSA-FH = assay: Cytotoxic activity (M) panel, Osteosarcoma OSA-FH; settings: read-out: CYTOTOXIC ACTIVITY (M) OSA-FH
LNCAP = assay: Cytotoxic activity (M) panel, Prostate LNCAP; settings: Homo sapiens, read-out: CYTOTOXIC ACTIVITY (M) LNCAP
786-O = assay: Cytotoxic activity (M) panel, Renal 786-O; settings: Homo sapiens, 786-0, read-out: CYTOTOXIC ACTIVITY (M) 786-O
NCI-H187 = assay: Cytotoxic activity (M) panel, SCL NCI-H187; settings: Homo sapiens, NCI-H187, read-out: CYTOTOXIC ACTIVITY (M) NCI-H187
FADU = assay: Cytotoxic activity (M) panel, Pharnynx FADU; settings: Homo sapiens, read-out: CYTOTOXIC ACTIVITY (M) FADU
SK-HEP-1 = assay: Cytotoxic activity (M) panel, Liver SK-HEP-1; settings: Homo sapiens, SK-HEP1, read-out: CYTOTOXIC ACTIVITY (M) SK-HEP-1
5637 = assay: Cytotoxic activity (M) panel, Bladder 5637; settings: read-out: CYTOTOXIC ACTIVITY (M) 5637
CHSA = assay: Cytotoxic activity (M) panel, Chondrosarcoma CHSA; settings: read-out: CYTOTOXIC ACTIVITY (M) CHSA
MEL-28 = assay: Cytotoxic activity (M) panel, Melanoma Mel-28; settings: Homo sapiens, SK-MEL-28, read-out: CYTOTOXIC ACTIVITY (M) Mel-28
HT-29 = assay: Cytotoxic activity (M) panel, Colon HT-29; settings: Homo sapiens, HT-29, read-out: CYTOTOXIC ACTIVITY (M) HT-29
PC3 = assay: Cytotoxic activity (M) panel, Prostate PC3; settings: Homo sapiens, PC-3, read-out: CYTOTOXIC ACTIVITY (M) PC3
MX-1 = assay: Cytotoxic activity (M) panel, Breast MX-1; settings: Homo sapiens, MX1, read-out: CYTOTOXIC ACTIVITY (M) MX-1

With `CCCC(=O)NC[C@H]1c2c(c(OC(C)=O)c(C)c3c2OCO3)CC2[C@H]3c4c(cc(C)c(OC)c4O)C[C@@H]([C@H](O)N21)N3C` (some centres unmarked) [drawing 229] the IC50 (Molt 3) was 1.62e-09 M, the IC50 (Hut 78) was 7.33e-09 M and the IC50 (MC116) was 1.62e-08 M. For the same compound, the IC50 (U-937) was 1.92e-09 M.
Compound `CCC(=O)NC[C@H]1c2c(c(OC(C)=O)c(C)c3c2OCO3)CC2[C@H]3c4c(cc(C)c(OC)c4O)C[C@@H]([C@H](O)N21)N3C` (some centres unmarked) [drawing 231] has an IC50 (Molt 3) of 9.86e-10 M, an IC50 (K562) of 1.87e-08 M and an IC50 (MC116) of 1.04e-09 M. For the same compound, the IC50 (H9) was 1.2e-08 M and the IC50 (HL60) was 4.93e-10 M.
Work on `CCCC(=O)OC[C@H]1c2c(c(OC(C)=O)c(C)c3c2OCO3)CC2[C@H]3c4c(cc(C)c(OC)c4O)C[C@@H]([C@H](O)N21)N3C` (some centres unmarked) [drawing 240] yielded an IC50 (Molt 3) of 4.63e-08 M, an IC50 (K562) of 2.11e-08 M and an IC50 (Hut 78) of 2.06e-08 M. For the same compound, the IC50 (RAMOS) was 9.09e-09 M, the IC50 (MC116) was 1.51e-08 M and the IC50 (U-937) was 1.03e-08 M. For the same compound, the IC50 (H9) was 6.76e-08 M.
Work on `COc1c(C)cc2c(c1O)[C@@H]1C3Cc4c(OC(C)=O)c(C)c5c(c4[C@H](COC(=O)/C=C/c4cccc(C(F)(F)F)c4)N3[C@@H](O)[C@H](C2)N1C)OCO5` (some centres unmarked) [drawing 237] yielded an IC50 (Molt 3) of 1.44e-08 M, an IC50 (K562) of 1.56e-07 M and an IC50 (Hut 78) of 6.47e-08 M. It also gave an IC50 (RAMOS) of 8.86e-09 M, an IC50 (MC116) of 1.69e-08 M and an IC50 (U-937) of 7.6e-08 M. For the same compound, the IC50 (H9) was 1.56e-07 M.
In the case of `COc1c(C)cc2c(c1O)[C@@H]1C3Cc4c(OC(C)=O)c(C)c5c(c4[C@H](CNC(=O)[C@H](C)NC(=O)C(F)(F)F)N3[C@@H](O)[C@H](C2)N1C)OCO5` (some centres unmarked) [drawing 219], the IC50 (Molt 3) was 2.8e-09 M, the IC50 (Hut 78) was 2.57e-10 M and the IC50 (MC116) was 2.65e-10 M. It also gave an IC50 (U-937) of 5.27e-11 M.
Work on `CCC(=O)NC[C@H]1c2c(c(OC(C)=O)c(C)c3c2OCO3)CC2[C@H]3c4c(cc(C)c(OC)c4O)C[C@@H]([C@H](O)N21)N3C` (some centres unmarked) [drawing 227] yielded an IC50 (SK-OV-3) of 2.9e-08 M, an IC50 (Hs746t) of 1.36e-09 M and an IC50 (PANC-1) of 1.37e-09 M. It also gave an IC50 (Y-79) of 3.08e-10 M, an IC50 (OSA-FH) of 4.37e-09 M and an IC50 (LNCAP) of 2.38e-08 M. The IC50 (786-O) was 2.27e-09 M, the IC50 (NCI-H187) was 2.41e-11 M and the IC50 (FADU) was 3.05e-08 M. It also gave an IC50 (SK-HEP-1) of 1.17e-09 M, an IC50 5637 of 9.91e-10 M and an IC50 (CHSA) of 1.63e-09 M. For the same compound, the IC50 (MEL-28) was 2.85e-09 M.
With `COc1c(C)cc2c(c1O)[C@@H]1C3Cc4c(OC(C)=O)c(C)c5c(c4[C@H](CNC(=O)Cc4ccccc4)N3[C@@H](O)[C@H](C2)N1C)OCO5` (some centres unmarked) [drawing 224] the IC50 (Molt 3) was 2.54e-09 M, the IC50 (Hut 78) was 7.46e-09 M and the IC50 (RAMOS) was 7.15e-09 M. The IC50 (MC116) was 1.13e-08 M and the IC50 (HL60) was 3.97e-10 M.
Work on `COc1c(C)cc2c(c1O)[C@@H]1C3Cc4c(OC(C)=O)c(C)c5c(c4[C@H](CNC(=O)/C=C/c4ccccc4)N3[C@@H](O)[C@H](C2)N1C)OCO5` (some centres unmarked) [drawing 220] yielded an IC50 (Molt 3) of 5.66e-10 M, an IC50 (Hut 78) of 4.62e-09 M and an IC50 (MC116) of 3.8e-09 M. It also gave an IC50 (U-937) of 3.28e-11 M.
`COc1c(C)cc2c(c1O)[C@@H]1C3Cc4c(OC(C)=O)c(C)c5c(c4[C@H](CNC(=O)[C@H](C)NC(=O)CCc4ccccc4)N3[C@@H](O)[C@H](C2)N1C)OCO5` (some centres unmarked) [drawing 215] gave an IC50 (HT-29) of 7.43e-10 M, an IC50 (Hs746t) of 9.35e-10 M and an IC50 (PANC-1) of 8.93e-10 M. For the same compound, the IC50 (OSA-FH) was 8.84e-10 M, the IC50 (786-O) was 7.88e-10 M and the IC50 (PC3) was 8.13e-10 M. It also gave an IC50 (FADU) of 8.41e-10 M, an IC50 (SK-HEP-1) of 1.4e-09 M and an IC50 5637 of 1.65e-10 M. It also gave an IC50 (CHSA) of 1.08e-09 M and an IC50 (MEL-28) of 1.08e-09 M.
Work on `CCC(=O)N[C@@H](C)C(=O)NC[C@H]1c2c(c(OC(C)=O)c(C)c3c2OCO3)CC2[C@H]3c4c(cc(C)c(OC)c4O)C[C@@H]([C@H](O)N21)N3C` (some centres unmarked) [drawing 228] yielded an IC50 (Hs746t) of 8.15e-09 M, an IC50 (PANC-1) of 8.61e-09 M and an IC50 (Y-79) of 7.45e-10 M. It also gave an IC50 (OSA-FH) of 1.15e-08 M, an IC50 (LNCAP) of 1.77e-08 M and an IC50 (786-O) of 1.54e-08 M. For the same compound, the IC50 (NCI-H187) was 9.89e-11 M, the IC50 (FADU) was 4.38e-08 M and the IC50 (SK-HEP-1) was 6.21e-09 M. It also gave an IC50 5637 of 1.17e-09 M, an IC50 (CHSA) of 2.91e-08 M and an IC50 (MX-1) of 1.92e-09 M. For the same compound, the IC50 (MEL-28) was 1.42e-08 M.
`COc1c(C)cc2c(c1O)[C@@H]1C3Cc4c(OC(C)=O)c(C)c5c(c4[C@H](CNC(=O)/C=C/c4cccc(C(F)(F)F)c4)N3[C@@H](O)[C@H](C2)N1C)OCO5` (some centres unmarked) [drawing 218] gave an IC50 (Molt 3) of 6.13e-10 M, an IC50 (Hut 78) of 5.5e-11 M and an IC50 (MC116) of 2.15e-10 M. The IC50 (U-937) was 1.77e-10 M.
